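How tested: cells in 96-well plates exposed to compound for 48 hours at five concentrations. At the TGI there is no net growth.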
Columns and labels:
Test in all cases: growth of human tumour cells (NCI), 48 h
MOLT-4 leukemia = test system: MOLT-4 leukemia
SN12C renal = test system: SN12C renal
ACHN renal = test system: ACHN renal
HCT-116 colon = test system: HCT-116 colon
KM12 colon = test system: KM12 colon
HT29 colon = test system: HT29 colon
MDA-MB-435 = test system: MDA-MB-435
M14 melanoma = test system: M14 melanoma
NCI-H522 lung = test system: NCI-H522 lung
TK-10 renal = test system: TK-10 renal
NCI-H23 lung = test system: NCI-H23 lung
HOP-92 NSCLC = test system: HOP-92 NSCLC

Row | Compound | TGI (MOLT-4 leukemia) [µM] | TGI (SN12C renal) [µM] | TGI (ACHN renal) [µM] | TGI (HCT-116 colon) [µM] | TGI (KM12 colon) [µM] | TGI (HT29 colon) [µM] | TGI (MDA-MB-435) [µM] | TGI (M14 melanoma) [µM] | TGI (NCI-H522 lung) [µM] | TGI (TK-10 renal) [µM] | TGI (NCI-H23 lung) [µM] | TGI (HOP-92 NSCLC) [µM]
1 | CSc1cc(Cl)c(C)cc1S(=O)(=O)NC(=O)NNc1ccccn1 | > 100 | > 100 | > 100 | > 100 | > 100 | > 100 | > 100 | > 100 | > 100 |  |  | 
2 | CCOC(=O)c1c(NC(=O)c2ccccc2)sc2c1CCC2 | > 100 | > 100 | > 100 | > 100 | > 100 | > 100 |  | > 100 |  | > 100 | > 100 | 
3 | O=S(=O)(NC(c1ccccc1)(c1cc2ccccc2[nH]1)c1cc2ccccc2n1S(=O)(=O)c1ccccc1)c1ccccc1 (stereo unspecified) | > 100 |  |  | > 100 | > 100 | > 100 | > 100 | > 100 |  | > 100 | > 100 | > 100
4 | O=S(=O)(O)Nc1ccc(-c2nc3ccccc3s2)cc1Cl |  | > 100 | > 100 | > 100 | > 100 | > 100 | > 100 | > 100 | > 100 | > 100 | > 100 | > 100
5 | N#Cc1nsnc1-c1nc(-c2nsnc2C#N)nc(-c2nsnc2C#N)n1 | > 100 | > 100 | > 100 | > 100 | > 100 | > 100 | > 100 |  | > 100 | > 100 | > 100 | 
6 | Cn1c2ccccc2n2c3ccccc3c(=S)c(C#N)c12 | > 100 |  | > 100 | > 100 | > 100 | > 100 | > 100 | > 100 | > 100 | > 100 | > 100 | 
7 | N#Cc1nc(Cc2ccccc2)oc1N | > 100 | > 100 | > 100 | > 100 | > 100 | > 100 | > 100 | > 100 |  | > 100 | > 100 | 
8 | C(/C=N/NC1=NCCN1)=N\NC1=NCCN1 | > 100 |  | > 100 | > 100 | > 100 | > 100 | > 100 | > 100 | > 100 |  | > 100 | > 100
9 | CC(=O)/C=C/c1c[nH]c(=O)[nH]c1=O | 783 | 573 |  | 388 | 439 | 847 |  |  | 295 |  | 745 | 102
10 | O=C(c1ccc(Cl)cc1)N(C(=S)N1CCN(c2ccccc2)CC1)c1ccccc1 | > 100 | > 100 | > 100 | > 100 | > 100 | > 100 |  | > 100 | > 100 | > 100 | > 100 | > 100
11 | CCCCN(CCCC)c1ccc(N=Nc2ccc(S(=O)(=O)O)cc2)cc1 | 35.2 | 85 | > 100 | 29.4 | 32.8 | 85.1 | > 100 | > 100 |  | > 100 | 47.2 | 22.1
12 | CC1CSc2nc3[nH]c(=S)[nH]c3c(=O)n2C1 (stereo unspecified) | > 100 | > 100 | > 100 | > 100 | > 100 |  | > 100 |  |  | > 100 | > 100 | 
